In the assay the target is ER in MCF-7 cells (Homo sapiens (Human), UniProt P03372). Kind of assay: In-cell Western (ICW) ER degradation assay in MCF-7 cells. Format: cell-based. As to conditions: for DC50: MCF-7, ER degradation, read-out: MCF7 DC50. The source says: In-cell Western (ICW) assays in MCF-7 and T47D cell lines.
Day 3: After 16 hrs of compounds treatment, cells were fixed by 4% PFA and permeabilized with elution buffer (0.1% Triton X-100 in 1% PBS Solution). Subsequently, cells were blocked with Intercept (PBS) Blocking Buffer (Li-COR, Odyssey Blocking Buffer), and were stained with ER (1:500, Cell signaling) primary antibody for overnight at cold room.
Day 4: Remove the buffer, add IRDye 800CW Goat anti-Rabbit IgG Secondary Antibody (1:2000) and CellTag 700 Stain (1:500) in Intercept (PBS) Blocking Buffer. Finally, cell plate is placed in incubator to dry. Image and signal were captured on Odyssey® DLx Imaging System.

The mark [1] stands for this setting: MCF7, read-out: MCF7 Dmax, MCF-7, maximal ER degradation, 16 hrs treatment.
Where [2] appears, read: MCF7, MCF-7, maximal ER degradation, 16 hrs treatment, read-out: MCF7 Dmax.

Read-outs that look alike come from different tables or passages of the source. A value given as a limit tells only on which side of the number the result lay.

Chain of ER in MCF-7 cells (P03372 whole entry): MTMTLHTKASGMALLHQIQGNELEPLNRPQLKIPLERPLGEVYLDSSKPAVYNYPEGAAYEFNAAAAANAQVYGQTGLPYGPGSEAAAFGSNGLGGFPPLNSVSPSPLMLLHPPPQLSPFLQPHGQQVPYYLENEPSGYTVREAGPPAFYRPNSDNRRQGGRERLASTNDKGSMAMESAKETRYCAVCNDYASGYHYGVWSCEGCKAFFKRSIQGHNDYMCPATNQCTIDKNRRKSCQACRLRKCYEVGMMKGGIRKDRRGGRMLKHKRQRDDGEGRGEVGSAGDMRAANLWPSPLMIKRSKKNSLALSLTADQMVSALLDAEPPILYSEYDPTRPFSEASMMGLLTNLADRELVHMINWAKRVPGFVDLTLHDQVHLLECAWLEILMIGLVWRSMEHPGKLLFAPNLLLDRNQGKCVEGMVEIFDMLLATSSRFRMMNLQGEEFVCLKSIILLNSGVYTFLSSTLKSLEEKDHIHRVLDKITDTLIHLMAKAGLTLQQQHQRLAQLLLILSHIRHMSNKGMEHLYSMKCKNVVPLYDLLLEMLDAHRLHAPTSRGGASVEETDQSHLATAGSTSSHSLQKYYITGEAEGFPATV

As to `COc1cc(N2CCC3(CC2)CC(CN2CCC4(CC2)COc2nc(C(=O)N[C@H]5CCC(=O)NC5=O)ccc24)C3)c(F)cc1[C@@H]1c2ccc(O)cc2CC[C@@H]1c1ccccc1` [Compound A190, N-((S)-2,6-dioxopiperidin-3-yl)-1′-((7-(2-fluoro-4-((1S,2S)-6-hydroxy-2-phenyl-1,2,3,4-tetrahydronaphthalen-1-yl)-5-methoxyphenyl)-7-azaspiro [3.5]nonan-2-yl)methyl)-2H-spiro[furo[2,3-b]pyridine-3,4′-piperidine]-6-carboxamide], under setting [1], the Dmax fell in the range of 50 to 75%. Besides, the DC50 (16 hrs treatment) is under 1 nM. The corresponding values for `O=C1CC[C@H](N2Cc3c(ccc4c3OCC43CCN(CC4CC5(CCN(c6ccc([C@@H]7c8ccc(O)cc8CC[C@@H]7c7ccccc7)cc6F)CC5)C4)CC3)C2=O)C(=O)N1` [Compound A146, (S)-3-(1′-((7-(2-fluoro-4-((1R,2S)-6-hydroxy-2-phenyl-1,2,3,4-tetrahydronaphthalen-1-yl)phenyl)-7-azaspiro[3.5]nonan-2-yl)methyl)-6-oxo-6,8-dihydro-2H,7H-spiro[furo[2,3-e]isoindole-3,4′-piperidin]-7-yl)piperidine-2,6-dione] are 25 to 50% and 10 to 100 nM.

Regarding `O=C1CC[C@H](N2Cc3cc4c(cc3C2=O)OC[C@@H]2CN(CC3CC5(CCN(c6ccc([C@H]7c8ccc(O)cc8CC[C@H]7c7ccccc7)cc6F)CC5)C3)CCN42)C(=O)N1` (single isomer, unassigned) [Compound A149], the Dmax under setting [2] was over 75%. For the setting “16 hrs treatment”, the DC50 lay in the range of 1 to 10 nM. As for `COc1cc(N2CC3(CCC(CN4CCC5(CC4)COc4cc6c(cc45)CN([C@H]4CCC(=O)NC4=O)C6=O)CC3)C2)c(F)cc1[C@@H]1c2ccc(O)cc2CC[C@@H]1c1ccccc1` [Compound A167, (S)-3-(1′-((2-(2-fluoro-4-((1S, 2S)-6-hydroxy-2-phenyl-1,2,3,4-tetrahydronaphthalen-1-yl)-5-methoxyphenyl)-2-aza-spiro[3.5]nonan-7-yl)methyl)-7-oxo-5,7-dihydro-2H,6H-spiro [furo[2,3-f]isoindole-3,4′-piper-idin]-6-yl)piperidine-2,6-dione], the Dmax under setting [1] is 50 to 75%. Further, the DC50 (16 hrs treatment) was under 1 nM. `O=C1CC[C@H](N2Cc3cc4c(cc3C2=O)OC[C@@H]2CN(CC3CCC5(CC3)CN(c3ccc([C@@H]6c7ccc(O)cc7CC[C@@H]6c6ccccc6)cn3)C5)CCN42)C(=O)N1` [Compound A130, (S)-3-((S)-3-((2-(5-((1S,2S)-6-hydroxy-2-phenyl-1,2,3,4-tetrahydronaphthalen-1-yl)pyridin-2-yl)-2-azaspiro[3.5]nonan-7-yl)methyl)-8-oxo-1,2,3,4,4a,5,8,10-octahydro-9H-pyrazino[1′,2′:4,5][1,4]oxazino[2,3-f]isoindol-9-yl)piperidine-2,6-dione]: under “16 hrs treatment”, the DC50 is 1 to 10 nM. For the setting “MCF-7, maximal ER degradation, 16 hrs treatment”, the “MCF7 Dmax” value is on record as “A (“A”: >=75%)”.

Take `O=C1CC[C@H](N2Cc3c(ccc4c3OCC43CCN(CCCOC4CN(c5ccc([C@@H]6c7ccc(O)cc7CC[C@@H]6c6ccccc6)cc5)C4)CC3)C2=O)C(=O)N1` [Compound A183, (S)-3-(1′-(3-((1-(4-((1R,2S)-6-hydroxy-2-phenyl-1,2,3,4-tetra-hydronaphthalen-1-yl)phenyl)-azetidin-3-yl)oxy)propyl)-6-oxo-6,8-dihydro-2H,7H-spiro [furo[2,3-e]isoindole-3,4′-piperidin]-7-yl)piperidine-2,6-dione]: under setting [1], the Dmax lay within 50 to 75%. For the same compound, for the setting “16 hrs treatment”, the DC50 is under 1 nM. As to `COc1cc(N2CC3(CCC(CN4CCN5c6ccc7c(c6OC[C@H]5C4)CN([C@H]4CCC(=O)NC4=O)C7=O)CC3)C2)c(F)cc1[C@H]1c2ccc(O)cc2CC[C@H]1c1ccccc1` (single isomer, unassigned) [Compound A165], the maximal degradation (Dmax) under setting [2] lay within 50 to 75%. In addition, for the setting “16 hrs treatment”, the DC50 lay in the range of 10 to 100 nM.

`COc1cc(N2CC3(CCC(CN4CCN5c6cc7c(cc6OC[C@@H]5C4)C(=O)N([C@H]4CCC(=O)NC4=O)C7)CC3)C2)c(F)cc1[C@H]1c2ccc(O)cc2CC[C@H]1c1ccccc1` [Compound A169, (S)-3-((S)-3-((2-(2-fluoro-4-((1R,2R)-6-hydroxy-2-phenyl-1,2,3,4-tetrahydronaphthalen-1-yl)-5-methoxyphenyl)-2-azaspiro[3.5]nonan-7-yl)methyl)-8-oxo-1,2,3,4,4a,5,8,10-octahydro-9H-pyrazino[1′,2′: 4,5][1,4]oxazino[2,3-f]isoindol-9-yl)piperidine-2,6-dione]: the Dmax under setting [2] fell in the range of 25 to 50%. Further, the DC50 (16 hrs treatment) lay in the range of 10 to 100 nM.

In the case of `COc1cc(N2CC3(CCC(CN4CCC5(CC4)COc4c5ccc5c4CN([C@H]4CCC(=O)NC4=O)C5=O)CC3)C2)c(F)cc1[C@H]1c2ccc(O)cc2CC[C@H]1c1ccccc1` [Compound A168, (S)-3-(1′-((2-(2-fluoro-4-((1R,2R)-6-hydroxy-2-phenyl-1,2,3,4-tetrahydronaphthalen-1-yl)-5-methoxyphenyl)-2-azaspiro[3.5]nonan-7-yl)methyl)-6-oxo-6,8-dihydro-2H,7H-spiro[furo[2,3-e]isoindole-3,4′-piperidin]-7-yl)piperidine-2,6-dione], the Dmax under setting [1] was in the range of 50 to 75%. Further, the DC50 (16 hrs treatment) is 1 to 10 nM.

In the case of `O=C1CC[C@H](N2Cc3c(ccc4c3OC[C@H]3CN(CC5CC6(CCN(c7ccc([C@@H]8c9ccc(O)cc9CC[C@@H]8c8ccccc8)cc7F)CC6)C5)CCN43)C2=O)C(=O)N1` (single isomer, unassigned) [Compound A145], under setting [2], the Dmax is 50 to 75%. For the same compound, the DC50 (16 hrs treatment) was 10 to 100 nM.

As to `O=C1CC[C@H](N2Cc3cc4c(cc3C2=O)OC[C@@H]2CN(CC3CC5(CCN(c6ncc([C@@H]7c8ccc(O)cc8CC[C@@H]7c7ccccc7)cn6)CC5)C3)CCN42)C(=O)N1` (single isomer, unassigned) [Compound A144], the Dmax under setting [2] lay within 50 to 75%. Further, the DC50 (16 hrs treatment) was 1 to 10 nM. Regarding `COc1cc(N2CC3(CC(CN4CCC5(CC4)COc4c5ccc5c4CN(C4CCC(=O)NC4=O)C5=O)C3)C2)c(F)cc1[C@@H]1c2ccc(O)cc2CC[C@@H]1c1ccccc1` (stereo partly drawn) [Compound A184, (S)-3-(1′-((2-(2-fluoro-4-((1S, 2S)-6-hydroxy-2-phenyl-1,2,3,4-tetrahydronaphthalen-1-yl)-5-methoxyphenyl)-2-aza-spiro[3.3]heptan-6-yl)methyl)-6-oxo-6,8-dihydro-2H,7H-spiro[furo[2,3-e]isoindole-3,4′-piperidin]-7-yl)piperidine-2,6-dione], the DC50 (16 hrs treatment) is under 1 nM. Consider `COc1c([C@@H]2c3ccc(O)cc3CC[C@@H]2c2ccccc2)ccc(N2CCC(CN3CCN4c5cc6c(cc5OC[C@@H]4C3)C(=O)N([C@H]3CCC(=O)NC3=O)C6)CC2)c1F` (single isomer, unassigned) [Compound A171], for which, under setting [2], the Dmax was over 75%. In addition, the DC50 (16 hrs treatment) is under 1 nM.

With `O=C1CC[C@H](N2Cc3c(ccc4c3OC[C@H]3CN(CC5CC6(CCN(c7ncc([C@H]8c9ccc(O)cc9CC[C@H]8c8ccccc8)cn7)CC6)C5)CCN43)C2=O)C(=O)N1` (single isomer, unassigned) [Compound A139], the Dmax under setting [2] lay within 50 to 75%. The DC50 (16 hrs treatment) fell in the range of 1 to 10 nM.

The Dmax is the largest share of the target that was removed. As usually defined, the DC50 is the concentration at which degradation of the target reaches its halfway point.

The values above are taken from US20260028354A1, “TETRAHYDRONAPHTHALENE DERIVATIVES AS ESTROGEN RECEPTOR DEGRADERS” (REGENT OF THE UNIVERSITY OF MICHIGAN, priority 2022, published 2026).
